In brackets after ≈: the same amount, converted by molar mass. Where two headings read alike, the source gives them in different places.
How the values were obtained:
[1] = test system: human red blood cells; experiment: Hemolysis assay; assay type: cell-based; settings: human, 1 h, pH 7.2
Protocol: Freshly drawn human red blood cells (hRBC with ethylenediaminetetraacetic acid (EDTA) as an anticoagulant) were washed with Tris-buffered saline (0.01M Tris-base, 0.155M sodium chloride (NaCl), pH 7.2) and centrifuged for 5 minutes at 3500 rpm. The washing was repeated three times with the buffer. In 96-well plate, the test compounds were added to the buffer. […] The plate was then incubated for 1 hour at 37° C. After incubation, the plate is centrifuged for 5 minutes at 3500 rpm. Then 80 μL of the supernatant were transferred to another 96-well plate and the Optical Density (OD) was read at 405 nm. […] The percent of hemolysis was calculated as (OD405 of the compound-OD405 DMSO)/(OD405 Triton X-OD405 buffer).

[2] = test system: MRSE (ATCC 35984) planktonic cells and biofilms; experiment: Calgary Biofilm Device (CBD) MBC/MBEC determination; assay type: cell-based, Staphylococcus epidermidis; settings: Staphylococcus epidermidis, planktonic killing, CBD, first value of cell
Protocol: (§1) Biofilm eradication experiments were performed using the Calgary Biofilm Device to determine MBC/MBEC values for various compounds of interest (Innovotech, product code: 19111). The Calgary device (96-well plate with lid containing 96 total pegs to establish biofilms; 1 peg/well) was inoculated with 125 μL of a mid-log phase culture diluted 1,000-fold in tryptic soy broth with 0.5% glucose (TSBG) to establish bacterial biofilms after incubation at 37° C. for 24 hours. The lid of the Calgary device was then removed, washed and transferred to another 96-well plate containing 2-fold serial dilutions of the test compounds (the “challenge plate”). The total volume of media with compound in each well in the challenge plate was 150 μL. The Calgary device was then incubated at 37° C. for 24 hours. The lid was then removed from the challenge plate and MBC/MBEC values were determined using different final assays. […] The MBC values were determined as the concentration giving a lack of visible bacterial growth (e.g., turbidity). For determination of MBEC values, the Calgary device lid (with attached pegs/treated biofilms) was transferred to a new 96-well plate containing 150 μL of fresh TSBG media in each well and incubated for 24 hours at 37° C. to allow viable biofilms to grow and disperse resulting in turbidity after the incubation period. […] In select experiments, treated pegs from the Calgary device were removed from lead biofilm eradicators after final incubation, sonicated for 30 minutes in PBS and plated out to determine biofilm cell killing (e.g., colony forming unit per milliliter, CFU/mL).

[3] = test system: VRE (ATCC 700221) planktonic cells and biofilms; experiment: as above; assay type: cell-based, Enterococcus faecium; settings: Enterococcus, planktonic killing, CBD, first value of cell
Protocol: as §1

[4] = test system: MRSA BAA-1707; experiment: as above; assay type: cell-based, Staphylococcus aureus; settings: Table 4, CBD; for MBC: Staphylococcus aureus, planktonic killing, first value of cell, read-out: MRSA BAA-1707 MBC
Protocol: as §1

[5] = test system: MRSA-2 planktonic cells and biofilms; experiment: as above; assay type: cell-based, Staphylococcus aureus; settings: CBD; for MBC: planktonic killing, first value of MBC/MBEC cell
Protocol: as §1

[6] = test system: methicillin-resistant Staphylococcus aureus-2 (MRSA-2; clinical isolate); experiment: Minimum inhibitory concentration (MIC) susceptibility assay, broth microdilution; assay type: cell-based; settings: Staphylococcus, MRSA
Protocol: (§2) The minimum inhibitory concentration (MIC) for each compound was determined by the broth microdilution method as recommended by the Clinical and Laboratory Standards Institute (CLSI). In a 96-well plate, eleven two-fold serial dilutions of each compound were made in a final volume of 100 μL Luria Broth. Each well was inoculated with ˜10^5 bacterial cells at the initial time of incubation, prepared from a fresh log phase culture (OD600 of 0.5 to 1.0 depending on bacterial strain). […] The concentration range tested for each compound during this study was 0.10 to 100 μM. DMSO served as the vehicle and negative control in each microdilution MIC assay. DMSO was serially diluted with a top concentration of 1% v/v. Bacterial strains used: methicillin-resistant Staphylococcus aureus-2 (MRSA-2; clinical isolate from Shands Hospital in Gainesville, Fla.), methicillin-resistant Staphylococcus epidermidis (MRSE; ATCC 35984), vancomycin-resistant Enterococcus faecium (VRE, ATCC 700221).

[7] = test system: vancomycin-resistant Enterococcus faecium (VRE, ATCC 700221); experiment: as above; assay type: cell-based; settings: read-out: VRE MIC
Protocol: as §2

[8] = test system: MRSA-2; experiment: Mechanistic investigations with metal(II)-cations (MIC assay with 200 μM metal salt); assay type: cell-based, Staphylococcus aureus; settings: MRSA-2; for Fold Δ (MIC w/Cu^2+) / Fold Δ (MIC w/Fe^2+) / Fold Δ (MIC w/Zn^2+): change in antibacterial activity according to MIC values; for MIC: Staphylococcus aureus
Protocol: as §2

[9] = test system: methicillin-resistant Staphylococcus epidermidis (MRSE; ATCC 35984); experiment: Minimum inhibitory concentration (MIC) susceptibility assay, broth microdilution; assay type: cell-based; settings: read-out: MRSE MIC
Protocol: as §2

[10] = Table 3, footnote c = lowest concentration tested, read-out: VRE MBC
[11] = Staphylococcus aureus, MRSA, Table 3, read-out: MRSA-2 MBC
[12] = Table 3, at least three independent experiments, read-out: MRSA-2 MIC
[13] = 200 μM ammonium iron (II) sulfate hexahydrate, read-out: MIC w/Fe^2+
[14] = 200 μM copper (II) sulfate, read-out: MIC w/Cu^2+
[15] = 200 μM zinc (II) chloride, read-out: MIC w/Zn^2+
[16] = Staphylococcus epidermidis, Table 3
[17] = Staphylococcus epidermidis, Table 2, ATCC 35984

Row | MIC [6, 12] [µM] | MIC ([7]; Table 3) [µM] | MIC ([6]; read-out: MIC) [µM] | SMILES | % Haemolysis at 200 μM [1] [%] | MBC ([2]; Table 3, read-out: MRSE MBC) [µM] | MBC [3, 10] [µM] | MBC [4] [µM] | MBC [5, 11] [µM] | also measured
1 | 0.78 (≈ 0.269 µg/mL) | 0.78 (≈ 0.269 µg/mL) | – | CCCc1ccc2c(Br)cc(Br)c(O)c2n1 [A-HQ-3] | ≤1 | 9.38 (≈ 3.24 µg/mL) | 2 (≈ 0.69 µg/mL) | 31.3 (≈ 10.8 µg/mL) | 125 (≈ 43.1 µg/mL) | –
2 | 1.56 (≈ 0.685 µg/mL) | 0.39 (≈ 0.171 µg/mL) | 1.56 (≈ 0.685 µg/mL) | CCCc1ccc2c(I)cc(I)c(O)c2n1 [A-HQ-4] | ≤1 | 125 (≈ 54.9 µg/mL) | 7.8 (≈ 3.42 µg/mL) | – | 188 (≈ 82.5 µg/mL) | Fold Δ (MIC w/Cu^2+) [8]: +8 fold; Fold Δ (MIC w/Fe^2+) [8]: +64 fold; Fold Δ (MIC w/Zn^2+) [8]: −8 fold; MIC [8, 13]: > 100 µM; MIC [8, 14]: 12.5 µM; MIC [8, 15]: 0.2 µM; MIC [9, 16]: 1.17 µM (≈ 0.514 µg/mL)
3 | 0.78 (≈ 0.28 µg/mL) | 100 (≈ 35.9 µg/mL) | – | CC(C)Cc1ccc2c(Br)cc(Br)c(O)c2n1 [A-HQ-5] | 12.3 | – | – | 31.3 (≈ 11.2 µg/mL) | – | –
4 | 9.38 (≈ 4.56 µg/mL) | 2.35 (≈ 1.14 µg/mL) | 9.38 (≈ 4.56 µg/mL) | Oc1c(Br)cc(Br)c2ccc(CCc3ccc(Br)cc3)nc12 [A-HQ-7] | ≤1 | 250 (≈ 122 µg/mL) | 9.38 (≈ 4.56 µg/mL) | – | 375 (≈ 182 µg/mL) | Fold Δ (MIC w/Cu^2+) [8]: +11 fold; Fold Δ (MIC w/Fe^2+) [8]: +11 fold; Fold Δ (MIC w/Zn^2+) [8]: −8 fold; MIC [8, 13]: > 100 µM; MIC [8, 14]: > 100 µM; MIC [8, 15]: 1.17 µM; MIC [9, 16]: 1.17 µM (≈ 0.569 µg/mL)
5 | – | – | – | O=Cc1ccc2c(Br)cc(Br)c(O)c2n1 [Compound 2, 5,7-dibromo-8-hydroxyquinoline-2-carbaldehyde] | – | – | – | – | – | melting point: 154 to 156 °C
6 | – | – | – | CCCCCCCCCC(=O)N[C@@H](Cc1c[nH]c2ccccc12)C(=O)N[C@H](CC(N)=O)C(=O)N[C@@H](CC(=O)O)C(=O)N[C@@H]1C(=O)NCC(=O)N[C@@H](CCCN)C(=O)N[C@@H](CC(=O)O)C(=O)N[C@H](C)C(=O)N[C@@H](CC(=O)O)C(=O)NCC(=O)N[C@H](CO)C(=O)N[C@@H]([C@H](C)CC(=O)O)C(=O)N[C@@H](CC(=O)c2ccccc2N)C(=O)O[C@@H]1C [Daptomycin, reference compound] | 1.7 | – | – | 125 (≈ 203 µg/mL) | 62.5 (≈ 101 µg/mL) | MRSA BAA-1707 MBEC ([4]; biofilm eradication, second value of cell): unable to eradicate; MBC ([5]; Table 2, read-out: MRSA-2 Clinical Isolate MBC): 62.5 µM (≈ 101 µg/mL); MIC [9, 17]: 12.5 µM (≈ 20.3 µg/mL); MIC ([9]; Table 3): 12.5 µM (≈ 20.3 µg/mL)
7 | – | – | 1.13 (≈ 0.461 µg/mL) | Oc1c(Br)cc(Br)c2ccc(CNc3ccccc3)nc12 [HQ-3] | – | – | – | 62.5 (≈ 25.5 µg/mL) | – | MBC ([2]; Table 2, read-out: MRSE ATCC 35984 MBC): 7.8 µM (≈ 3.18 µg/mL); MBC ([3]; Table 2, read-out: VRE ATCC 700221 MBC): 7.8 µM (≈ 3.18 µg/mL); MBC ([5]; Staphylococcus aureus, MRSA, Table 2, read-out: MRSA-2 Clinical Isolate MBC): 125 µM (≈ 51 µg/mL); MRSA-2 MBEC ([5]; Table 3, biofilm eradication, second value of MBC/MBEC cell): equipotent biofilm eradication activities; MIC ([9]; Staphylococcus epidermidis, 18 h, Table 2, ATCC 35984): 0.15 to 0.3 µM (≈ 0.0612 to 0.122 µg/mL); MIC [9, 17]: 0.15 µM (≈ 0.0612 µg/mL); MIC ([6]; Table 2, 2 to 6 independent experiments, read-out: MRSA-2 MIC): 0.78 µM (≈ 0.318 µg/mL); MIC ([7]; 18 h, Table 2, ATCC 700221): 0.39 to 0.78 µM (≈ 0.159 to 0.318 µg/mL); MIC ([7]; Table 2, ATCC 700221): 0.78 µM (≈ 0.318 µg/mL)
8 | – | – | – | N#Cc1ccc2c(Br)cc(Br)c(O)c2n1 [HQ-8, 5,7-dibromo-8-hydroxyquinoline-2-carbonitrile] | – | – | – | – | – | melting point: 172 to 174 °C
